Measurements from patent US6908884B2, “Benzazolonylcarbonylcyclohexenones and their use as herbicides” (BASF Aktiengesellschaft, priority 2000, dated 2005).
One block for each compound: values may come before it.

Columns and labels:
AMARE = assay: greenhouse post-emergence herbicidal test; type: in vivo, redroot pigweed; details: 125 or 250 g/ha (a.s.)
Text: (§1) The seeds of the test plants were sown separately for each species. For the post-emergence treatment, the test plants were first grown to a plant height of from 3 to 15 cm, depending on the plant habit, and only then treated with the active compounds which had been suspended or emulsified in water. To this end, the test plants were either sown directly and grown in the same containers, or they were first grown separately as seedlings and transplanted into the test containers a few days prior to treatment. The rate of application for the post-emergence treatment was 250, 125, 62.5, 31.3 and/or 15.6 g/ha of active substance (a.s.). Depending on the species, the plants were kept at from 10 to 25° C., or 20-35° C., respectively. The test period extended over 2 to 4 weeks. During this time, the plants were tended, and their response to the individual treatments was evaluated. Evaluation was carried out using a scale of from 0 to 100. 100 means no emergence of the plants, or complete destruction of at least the aerial parts, and 0 means no damage, or normal course of growth. A damage of at least 95% corresponds to very good herbicidal action. The plants used in the greenhouse experiments were of the following species: [table]

ABUTH = assay: greenhouse post-emergence herbicidal test; type: in vivo, velvet leaf; details: 125 or 250 g/ha (a.s.)
Text: as §1

PHBPU = assay: greenhouse post-emergence herbicidal test; type: in vivo, morning glory, common
Text: as §1, with “The rate of application for the post-emergence treatment was 250, 125, 62.5, 31.3 and/or 15.6 g/ha of active substance (a.s.).” left out

SETFA = assay: greenhouse post-emergence herbicidal test; type: in vivo, giant foxtail; details: 125 or 250 g/ha (a.s.)
Text: as §1

BRAPL = assay: greenhouse post-emergence herbicidal test; type: in vivo, marmalade grass; details: 125 or 250 g/ha (a.s.)
Text: as §1

SINAL = assay: greenhouse post-emergence herbicidal test; type: in vivo, white mustard; details: 125 or 62.5 g/ha (a.s.)
Text: as §1

LAMAM = assay: greenhouse post-emergence herbicidal test; type: in vivo, henbit; details: 125 or 62.5 g/ha (a.s.)
Text: as §1

MATIN = assay: greenhouse post-emergence herbicidal test; type: in vivo, chamomile, false; details: 125 or 62.5 g/ha (a.s.)
Text: as §1

POLPE = assay: greenhouse post-emergence herbicidal test; type: in vivo, lady's thumb; details: 31.3 g/ha (a.s.), read-out: herbicidal action against POLPE
Text: as §1

CHEAL = assay: greenhouse post-emergence herbicidal test; type: in vivo, lambs' quarters (goose-foot)
Text: as §1, with “The rate of application for the post-emergence treatment was 250, 125, 62.5, 31.3 and/or 15.6 g/ha of active substance (a.s.).” left out

ECHCG = assay: greenhouse post-emergence herbicidal test; type: in vivo, barnyard grass
Text: as §1, with “The rate of application for the post-emergence treatment was 250, 125, 62.5, 31.3 and/or 15.6 g/ha of active substance (a.s.).” left out

Compound: CCCCn1c(=O)oc2ccc(C(=O)C3=C(O)CCCC3=O)c(C)c21 [Compound I-1a.6]
herbicidal action against AMARE (AMARE): very good herbicidal action (A damage of at least 95% corresponds to very good herbicidal action)

Compound: CCCCn1c(=O)sc2ccc(C(=O)C3=C(O)C(C)(C)C(=O)C(C)(C)C3=O)c(C)c21 [Compound I-1d.1134]
herbicidal action against AMARE (AMARE): very good herbicidal action (A damage of at least 95% corresponds to very good herbicidal action)
herbicidal action against ABUTH (ABUTH): very good herbicidal action (A damage of at least 95% corresponds to very good herbicidal action)

Compound: C=CCn1c(=O)oc2ccc(C(=O)C3=C(O)CCCC3=O)c(C)c21 [Compound I-1a.29]
herbicidal action against AMARE (AMARE): very good herbicidal action (A damage of at least 95% corresponds to very good herbicidal action)

Compound: Cc1c(C(=O)C2=C(O)CC(C)(C)CC2=O)ccc2sc(=O)n(C)c12 [Compound I-1c.1129, 3,4-dimethyl-5-(5′,5′-dimethyl-1′,3′-cyclohexanedion-2′-yl)-carbonylbenzothiazol-2-one]
herbicidal action against PHBPU (PHBPU; 125 or 62.5 g/ha (a.s.)): very good herbicidal action (A damage of at least 95% corresponds to very good herbicidal action)

Compound: CCn1c(=O)sc2ccc(C(=O)C3=C(O)C4CCC(C4)C3=O)c(C)c21 (centres unmarked) [Compound I-1x.1131]
herbicidal action against SETFA (SETFA): very good herbicidal action (A damage of at least 95% corresponds to very good herbicidal action)
herbicidal action against BRAPL (BRAPL): very good herbicidal action (A damage of at least 95% corresponds to very good herbicidal action)

Compound: CCn1c(=O)sc2ccc(C(=O)C3=C(O)CCCC3=O)c(C)c21 [Compound I-1a.1131]
herbicidal action against ABUTH (ABUTH): very good herbicidal action (A damage of at least 95% corresponds to very good herbicidal action)

Compound: CCn1c(=O)sc2ccc(C(=O)C3=C(O)C(C)(C)C(=O)C(C)(C)C3=O)c(C)c21 [Compound I-1d.1131]
herbicidal action against SETFA (SETFA): very good herbicidal action (A damage of at least 95% corresponds to very good herbicidal action)
herbicidal action against AMARE (AMARE): very good herbicidal action (A damage of at least 95% corresponds to very good herbicidal action)
herbicidal action against ABUTH (ABUTH): very good herbicidal action (A damage of at least 95% corresponds to very good herbicidal action)

Compound: CCCCn1c(=O)sc2ccc(C(=O)C3=C(O)C4CCC(C4)C3=O)c(C)c21 (centres unmarked) [Compound I-1x.1134]
herbicidal action against SETFA (SETFA): very good herbicidal action (A damage of at least 95% corresponds to very good herbicidal action)
herbicidal action against ABUTH (ABUTH): very good herbicidal action (A damage of at least 95% corresponds to very good herbicidal action)

Compound: CCn1c(=O)sc2ccc(C(=O)C3=C(O)CC(C)(C)CC3=O)c(C)c21 [Compound I-1c.1131]
herbicidal action against SETFA (SETFA): very good herbicidal action (A damage of at least 95% corresponds to very good herbicidal action)

Compound: Cc1c(C(=O)C2=C(O)CCCC2=O)ccc2sc(=O)n(C)c12 [Compound I-1a.1129, 3,4-dimethyl-5-(1′,3′-cyclohexanedion-2′-yl)carbonylbenzothiazol-2-one]
herbicidal action against SINAL (SINAL): very good herbicidal action (A damage of at least 95% corresponds to very good herbicidal action)
herbicidal action against LAMAM (LAMAM): very good herbicidal action (A damage of at least 95% corresponds to very good herbicidal action)
herbicidal action against MATIN (MATIN): very good herbicidal action (A damage of at least 95% corresponds to very good herbicidal action)

Compound: Cc1c(C(=O)C2=C(O)C(C)(C)C(=O)C(C)(C)C2=O)ccc2sc(=O)n(C)c12 [Compound I-1d.1129, 3,4-dimethyl-5-(4′,4′,6′,6′-tetramethyl-1′,3′,5′-cyclohexane-trion-2′-yl)-carbonylbenzothiazol-2-one]
pest or weed control at 31.3 g/ha (POLPE): ≥ 95%
herbicidal action against PHBPU (PHBPU; 16.5 g/ha of a.s.): very good herbicidal action (A damage of at least 95% corresponds to very good herbicidal action)
herbicidal action against PHBPU (PHBPU; 31.3 g/ha (a.s.)): very good herbicidal action (A damage of at least 95% corresponds to very good herbicidal action)
herbicidal action against CHEAL (CHEAL; 16.5 g/ha of a.s.): good to very good herbicidal action
pest or weed control at 31.3 g/ha (CHEAL; Chenopodium album, 31.3 g/ha (a.s.), read-out: herbicidal action against CHEAL): ≥ 95%
herbicidal action against ECHCG (ECHCG; 16.5 g/ha of a.s.): good to very good herbicidal action
herbicidal action against ECHCG (ECHCG; 31.3 g/ha (a.s.)): good to very good herbicidal action

Further lines, results first:

melting point: 189 to 193 °C
Compound: CCCn1c(=O)oc2ccc(C(=O)C3=C(O)CC(C)(C)CC3=O)c(C)c21 [Example 29]

melting point: 143 to 150 °C
Compound: C=CCn1c(=O)sc2ccc(C(=O)C3=C(O)CC(C)(C)CC3=O)c(C)c21 [Example 5]

melting point: 207 to 209 °C
Compound: Cc1c(C(=O)C2=C(O)CCCC2=O)ccc2oc(=O)n(C)c12 [Example 6]

melting point: 139 to 143 °C
Compound: Cc1c(C(=O)C2=C(O)CC(C)(C)CC2=O)ccc2oc(=O)n(C)c12 [Example 7]

melting point: 161 to 166 °C
Compound: Cc1c(C(=O)C2=C(O)CC(C)(C)CC2=O)ccc2sc(=O)n(Cc3ccccc3)c12 [Example 32]

melting point: 129 to 132 °C
Compound: C=CCCn1c(=O)sc2ccc(C(=O)C3=C(O)C4CCC(C4)C3=O)c(C)c21 (centres unmarked) [Example 40]

melting point: 115 to 116 °C
Compound: CCCCn1c(=O)oc2ccc(C(=O)C3=C(O)CC(C)(C)CC3=O)c(C)c21 [Example 10]

melting point: 101 to 110 °C
Compound: Cc1c(C(=O)C2=C(O)C3CCC(C3)C2=O)ccc2sc(=O)n(C)c12 (centres unmarked) [Example 4]

melting point: 150 to 151 °C
Compound: CCn1c(=O)sc2ccc(C(=O)C3=C(n4cccn4)CC(C)(C)CC3=O)c(C)c21 [Example 21]

melting point: 129 to 135 °C
Compound: CCCn1c(=O)sc2ccc(C(=O)C3=C(O)CC(C)(C)CC3=O)c(C)c21 [Example 25]

melting point: 147 to 149 °C
Compound: CC#CCn1c(=O)sc2ccc(C(=O)C3=C(O)CC(C)(C)CC3=O)c(C)c21 [Example 33]
